Results as given in ChEMBL document CHEMBL5034010, “Novel Cephalosporin Conjugates Display Potent and Selective Inhibition of Imipenemase-Type Metallo-β-Lactamases” (J Med Chem, 2021).
In brackets after ≈: the same amount, converted by molar mass. Activity calls are given as the source filed them. No cut-off for these calls is given here.

How the values were obtained:
Klebsiella pneumoniae [1] = assay: Substrate activity at Klebsiella pneumoniae beta-lactamase IMP-28 assessed as compound hydrolysis by measuring Kcat/Km by Michaelis-Menten analysis
Escherichia coli [2] = assay: Inhibition of Metallo-beta-lactamase VIM-2 in Escherichia coli clinical isolate assessed as fold reduction in meropenem MIC at 128 ug/ml; conditions: dose 128.0 µg/ml
Escherichia coli [3] = assay: Substrate activity at Escherichia coli beta-lactamase VIM-2 assessed as compound hydrolysis by measuring Kcat by Michaelis-Menten analysis
Escherichia coli [4] = assay: Inhibition of Metallo-beta-lactamase NDM-1 in Escherichia coli clinical isolate assessed as MIC for meropenem antibacterial activity at 64 ug/ml (reference value: 32 ug/ml); conditions: dose 64.0 µg/ml
Escherichia coli [5] = assay: Inhibition of Metallo-beta-lactamase NDM-1 in Escherichia coli clinical isolate assessed as fold reduction in meropenem MIC at 64 ug/ml; conditions: dose 64.0 µg/ml
Escherichia coli [6] = assay: Substrate activity at Escherichia coli beta-lactamase NDM-1 assessed as compound hydrolysis by measuring Kcat by Michaelis-Menten analysis
Klebsiella pneumoniae [7] = assay: Inhibition of Metallo-beta-lactamase IMP-28 in Klebsiella pneumoniae clinical isolate assessed as fold reduction in meropenem MIC at 128 ug/ml; conditions: dose 128.0 µg/ml
Klebsiella pneumoniae [8] = assay: Inhibition of Metallo-beta-lactamase IMP-28 in Klebsiella pneumoniae clinical isolate assessed as MIC for meropenem antibacterial activity at 64 ug/ml (reference value: 4 ug/ml); conditions: dose 64.0 µg/ml
[9] = Inhibition of Enterobacter cloacae IMP-1 using nitrocefin chromogenic substrate measured after 15 to 60 min at 25 degC by microplate reader
Enterobacter cloacae [10] = assay: Inhibition of Metallo-beta-lactamase IMP-1 in Enterobacter cloacae clinical isolate assessed as fold reduction in meropenem MIC at 128 ug/ml; conditions: dose 128.0 µg/ml
Escherichia coli [11] = assay: Inhibition of Metallo-beta-lactamase VIM-2 in Escherichia coli clinical isolate assessed as fold reduction in meropenem MIC at 64 ug/ml; conditions: dose 64.0 µg/ml
Klebsiella pneumoniae [12] = assay: Antibacterial activity against beta-lactamase IMP-28 producing Klebsiella pneumoniae clinical isolate measured upto 128 ug/ml; assay type: functional, organism-based
[13] = Inhibition of Escherichia coli beta-lactamase NDM-1 using nitrocefin chromogenic substrate measured after 15 to 60 min at 25 degC by microplate reader
Klebsiella pneumoniae [14] = assay: Inhibition of Metallo-beta-lactamase IMP-28 in Klebsiella pneumoniae clinical isolate assessed as MIC for meropenem antibacterial activity at 32 ug/ml (reference value: 4 ug/ml); conditions: dose 32.0 µg/ml
Escherichia coli [15] = assay: Substrate activity at Escherichia coli beta-lactamase NDM-1 assessed as compound hydrolysis by measuring kcat/km by Michaelis-Menten analysis
Enterobacter cloacae [16] = assay: Antibacterial activity against beta-lactamase IMP1 producing Enterobacter cloacae clinical isolate measured upto 128 ug/ml; assay type: functional, organism-based
Enterobacter cloacae [17] = assay: Inhibition of Metallo-beta-lactamase IMP-1 in Enterobacter cloacae clinical isolate assessed as fold reduction in meropenem MIC at 64 ug/ml; conditions: dose 64.0 µg/ml
Escherichia coli [18] = assay: Inhibition of Metallo-beta-lactamase NDM-1 in Escherichia coli clinical isolate assessed as MIC for meropenem antibacterial activity at 128 ug/ml (reference value: 32 ug/ml); conditions: dose 128.0 µg/ml
Klebsiella pneumoniae [19] = assay: Substrate activity at Klebsiella pneumoniae beta-lactamase IMP-28 assessed as compound hydrolysis by measuring Km by Michaelis-Menten analysis
Escherichia coli [20] = assay: Inhibition of Metallo-beta-lactamase VIM-2 in Escherichia coli clinical isolate assessed as fold reduction in meropenem MIC at 32 ug/ml; conditions: dose 32.0 µg/ml
[21] = Inhibition of Escherichia coli beta-lactamase VIM-2 using nitrocefin chromogenic substrate measured after 15 to 60 min at 25 degC by microplate reader
Klebsiella pneumoniae [22] = assay: Inhibition of Metallo-beta-lactamase IMP-28 in Klebsiella pneumoniae clinical isolate assessed as fold reduction in meropenem MIC at 64 ug/ml; conditions: dose 64.0 µg/ml
[23] = Metabolic stability of the compound assessed as Klebsiella pneumoniae beta-lactamase IMP-28-mediated metabolism by (2R)-2-((R)-carboxy(2-phenylacetamido)methyl)-5-(((R)-carboxy(phenyl)methylthio)methyl)-5,6-dihydro-2H-1,3-thiazine-4-carboxylic acid by LC-MS analysis; assay type: ADME
[24] = Inhibition of Klebsiella pneumoniae beta-lactamase IMP-28 using nitrocefin chromogenic substrate measured after 15 to 60 min at 25 degC by microplate reader
Enterobacter cloacae [25] = assay: Inhibition of Metallo-beta-lactamase IMP-1 in Enterobacter cloacae clinical isolate assessed as MIC for meropenem antibacterial activity at 32 ug/ml (reference value: 32 ug/ml); conditions: dose 32.0 µg/ml
Escherichia coli [26] = assay: Inhibition of Metallo-beta-lactamase VIM-2 in Escherichia coli clinical isolate assessed as MIC for meropenem antibacterial activity at 64 ug/ml (reference value: 8 ug/ml); conditions: dose 64.0 µg/ml
Escherichia coli [27] = assay: Substrate activity at Escherichia coli beta-lactamase VIM-2 assessed as compound hydrolysis by measuring Kcat/Km by Michaelis-Menten analysis
Enterobacter cloacae [28] = assay: Inhibition of Metallo-beta-lactamase IMP-1 in Enterobacter cloacae clinical isolate assessed as fold reduction in meropenem MIC at 32 ug/ml; conditions: dose 32.0 µg/ml
Escherichia coli [29] = assay: Antibacterial activity against beta-lactamase VIM2 producing Escherichia coli clinical isolate measured upto 128 ug/ml; assay type: functional, organism-based
Escherichia coli [30] = assay: Inhibition of Metallo-beta-lactamase VIM-2 in Escherichia coli clinical isolate assessed as MIC for meropenem antibacterial activity at 32 ug/ml (reference value: 8 ug/ml); conditions: dose 32.0 µg/ml
Escherichia coli [31] = assay: Inhibition of Metallo-beta-lactamase NDM-1 in Escherichia coli clinical isolate assessed as MIC for meropenem antibacterial activity at 32 ug/ml (reference value: 32 ug/ml); conditions: dose 32.0 µg/ml
Escherichia coli [32] = assay: Inhibition of Metallo-beta-lactamase VIM-2 in Escherichia coli clinical isolate assessed as MIC for meropenem antibacterial activity at 128 ug/ml (reference value: 8 ug/ml); conditions: dose 128.0 µg/ml
Klebsiella pneumoniae [33] = assay: Inhibition of Metallo-beta-lactamase IMP-28 in Klebsiella pneumoniae clinical isolate assessed as MIC for meropenem antibacterial activity at 128 ug/ml (reference value: 4 ug/ml); conditions: dose 128.0 µg/ml
Klebsiella pneumoniae [34] = assay: Inhibition of Metallo-beta-lactamase IMP-28 in Klebsiella pneumoniae clinical isolate assessed as fold reduction in meropenem MIC at 32 ug/ml; conditions: dose 32.0 µg/ml
Klebsiella pneumoniae [35] = assay: Inhibition of Klebsiella pneumoniae beta Metallo-beta-lactamase IMP-28
[36] = Stability of the compound in Muller hinton broth assessed compound remaining measured after 15 hrs by HPLC analysis; assay type: physicochemical; conditions: Mueller Hinton broth, read-out: Stability
Enterobacter cloacae [37] = assay: Inhibition of Metallo-beta-lactamase IMP-1 in Enterobacter cloacae clinical isolate assessed as MIC for meropenem antibacterial activity at 64 ug/ml (reference value: 32 ug/ml); conditions: dose 64.0 µg/ml
Enterobacter cloacae [38] = assay: Inhibition of Enterobacter cloacae Metallo-beta-lactamase IMP-1
Escherichia coli [39] = assay: Substrate activity at Escherichia coli beta-lactamase NDM-1 assessed as compound hydrolysis by measuring Km by Michaelis-Menten analysis
Escherichia coli [40] = assay: Substrate activity at Escherichia coli beta-lactamase VIM-2 assessed as compound hydrolysis by measuring Km by Michaelis-Menten analysis
Escherichia coli [41] = assay: Inhibition of Metallo-beta-lactamase NDM-1 in Escherichia coli clinical isolate assessed as fold reduction in meropenem MIC at 32 ug/ml; conditions: dose 32.0 µg/ml
Escherichia coli [42] = assay: Inhibition of Metallo-beta-lactamase NDM-1 in Escherichia coli clinical isolate assessed as fold reduction in meropenem MIC at 128 ug/ml; conditions: dose 128.0 µg/ml
Klebsiella pneumoniae [43] = assay: Substrate activity at Klebsiella pneumoniae beta-lactamase IMP-28 assessed as compound hydrolysis by measuring Kcat by Michaelis-Menten analysis
[44] = Stability of the compound assessed as Klebsiella pneumoniae beta-lactamase IMP-28-mediated degradation by measuring appearance of vinyl protons release measured after 120 mins by NMR spectra; assay type: ADME; conditions: 2 h
Escherichia coli [45] = assay: Antibacterial activity against beta-lactamase NDM1 producing Escherichia coli clinical isolate measured upto 128 ug/ml; assay type: functional, organism-based
Enterobacter cloacae [46] = assay: Inhibition of Metallo-beta-lactamase IMP-1 in Enterobacter cloacae clinical isolate assessed as MIC for meropenem antibacterial activity at 128 ug/ml (reference value: 32 ug/ml); conditions: dose 128.0 µg/ml
[47] = Metabolic stability of the compound assessed as Klebsiella pneumoniae beta-lactamase IMP-28-mediated metabolism by (2R)-2-((R)-carboxy(2-phenylacetamido)methyl)-5-((carboxy(phenyl)methylthio)methyl)-5,6-dihydro-2H-1,3-thiazine-4-carboxylic acid by LC-MS analysis; assay type: ADME

O=C(Cc1ccccc1)N[C@@H]1C(=O)N2C(C(=O)O)=C(CS[C@H](Cc3ccccc3)C(=O)O)CS[C@H]12
kcat/Km (Klebsiella pneumoniae [1]): 11000 M⁻¹ s⁻¹
fold change (FC) (Escherichia coli [2]): 4
kcat (Escherichia coli [3]): 2.35 s⁻¹
MIC (Escherichia coli [4]): 8 µg/mL (≈ 15.6 µM)
fold change (FC) (Escherichia coli [5]): 4
kcat (Escherichia coli [6]): 17.4 s⁻¹
fold change (FC) (Klebsiella pneumoniae [7]): > 64
MIC (Klebsiella pneumoniae [8]): < 0.063 µg/mL
IC50 [9]: 4.7 µM
fold change (FC) (Enterobacter cloacae [10]): 64
fold change (FC) (Escherichia coli [11]): 2
Activity (Klebsiella pneumoniae [12]): inactive
IC50 [13]: 94 µM
MIC (Klebsiella pneumoniae [14]): < 0.063 µg/mL
kcat/Km (Escherichia coli [15]): 821000 M⁻¹ s⁻¹
Activity (Enterobacter cloacae [16]): inactive
fold change (FC) (Enterobacter cloacae [17]): 32
MIC (Escherichia coli [18]): 8 µg/mL (≈ 15.6 µM)
Km (Klebsiella pneumoniae [19]): 249 µM
fold change (FC) (Escherichia coli [20]): 2
IC50 [21]: 16 µM
fold change (FC) (Klebsiella pneumoniae [22]): > 64
Drug metabolism [23]: Metabolite_Detected
IC50 [24]: 1.1 µM
MIC (Enterobacter cloacae [25]): 1 µg/mL (≈ 1.95 µM)
MIC (Escherichia coli [26]): 4 µg/mL (≈ 7.8 µM)
kcat/Km (Escherichia coli [27]): 546000 M⁻¹ s⁻¹
fold change (FC) (Enterobacter cloacae [28]): 32
Activity (Escherichia coli [29]): inactive
MIC (Escherichia coli [30]): 4 µg/mL (≈ 7.8 µM)
MIC (Escherichia coli [31]): 16 µg/mL (≈ 31.2 µM)
MIC (Escherichia coli [32]): 2 µg/mL (≈ 3.9 µM)
MIC (Klebsiella pneumoniae [33]): < 0.063 µg/mL
fold change (FC) (Klebsiella pneumoniae [34]): > 64
inhibition (Klebsiella pneumoniae [35]): Active
remaining at 15 h [36]: > 95%
MIC (Enterobacter cloacae [37]): 1 µg/mL (≈ 1.95 µM)
inhibition (Enterobacter cloacae [38]): Active
Km (Escherichia coli [39]): 21.2 µM
Km (Escherichia coli [40]): 4.3 µM
fold change (FC) (Escherichia coli [41]): 2
fold change (FC) (Escherichia coli [42]): 4
kcat (Klebsiella pneumoniae [43]): 2.83 s⁻¹
Stability [44]: Stable
Activity (Escherichia coli [45]): inactive
MIC (Enterobacter cloacae [46]): 0.5 µg/mL (≈ 0.975 µM)

O=C(Cc1ccccc1)N[C@@H]1C(=O)N2C(C(=O)O)=C(CSC(C(=O)O)c3ccccc3)CS[C@H]12 (some centres not stated)
kcat/Km (Klebsiella pneumoniae [1]): 3000 M⁻¹ s⁻¹
fold change (FC) (Escherichia coli [2]): 8
kcat (Escherichia coli [3]): 4.06 s⁻¹
MIC (Escherichia coli [4]): 16 µg/mL (≈ 32.1 µM)
fold change (FC) (Escherichia coli [5]): 2
kcat (Escherichia coli [6]): 13.1 s⁻¹
fold change (FC) (Klebsiella pneumoniae [7]): > 64
MIC (Klebsiella pneumoniae [8]): < 0.063 µg/mL
IC50 [9]: 0.47 µM
fold change (FC) (Enterobacter cloacae [10]): 64
fold change (FC) (Escherichia coli [11]): 4
Activity (Klebsiella pneumoniae [12]): inactive
IC50 [13]: > 100 µM
MIC (Klebsiella pneumoniae [14]): < 0.063 µg/mL
kcat/Km (Escherichia coli [15]): 936000 M⁻¹ s⁻¹
Activity (Enterobacter cloacae [16]): inactive
Drug metabolism [47]: Metabolite_Detected
fold change (FC) (Enterobacter cloacae [17]): 64
MIC (Escherichia coli [18]): 8 µg/mL (≈ 16 µM)
Km (Klebsiella pneumoniae [19]): 129 µM
fold change (FC) (Escherichia coli [20]): 2
IC50 [21]: 10 µM
fold change (FC) (Klebsiella pneumoniae [22]): > 64
IC50 [24]: 0.46 µM
MIC (Enterobacter cloacae [25]): 1 µg/mL (≈ 2.01 µM)
MIC (Escherichia coli [26]): 2 µg/mL (≈ 4.01 µM)
kcat/Km (Escherichia coli [27]): 490000 M⁻¹ s⁻¹
fold change (FC) (Enterobacter cloacae [28]): 32
Activity (Escherichia coli [29]): inactive
MIC (Escherichia coli [30]): 4 µg/mL (≈ 8.02 µM)
MIC (Escherichia coli [31]): 16 µg/mL (≈ 32.1 µM)
MIC (Escherichia coli [32]): 1 µg/mL (≈ 2.01 µM)
MIC (Klebsiella pneumoniae [33]): < 0.063 µg/mL
fold change (FC) (Klebsiella pneumoniae [34]): > 64
inhibition (Klebsiella pneumoniae [35]): Active
remaining at 15 h [36]: > 95%
MIC (Enterobacter cloacae [37]): 0.5 µg/mL (≈ 1 µM)
inhibition (Enterobacter cloacae [38]): Active
Km (Escherichia coli [39]): 14 µM
Km (Escherichia coli [40]): 8.28 µM
fold change (FC) (Escherichia coli [41]): 2
fold change (FC) (Escherichia coli [42]): 4
kcat (Klebsiella pneumoniae [43]): 0.386 s⁻¹
Stability [44]: Stable
Activity (Escherichia coli [45]): inactive
MIC (Enterobacter cloacae [46]): 0.5 µg/mL (≈ 1 µM)
